pEC50: −log10 of the molar value.
Target: T1, Bile acid receptor (Homo sapiens, UniProt Q96RI1)
T1 sequence (Q96RI1 whole entry): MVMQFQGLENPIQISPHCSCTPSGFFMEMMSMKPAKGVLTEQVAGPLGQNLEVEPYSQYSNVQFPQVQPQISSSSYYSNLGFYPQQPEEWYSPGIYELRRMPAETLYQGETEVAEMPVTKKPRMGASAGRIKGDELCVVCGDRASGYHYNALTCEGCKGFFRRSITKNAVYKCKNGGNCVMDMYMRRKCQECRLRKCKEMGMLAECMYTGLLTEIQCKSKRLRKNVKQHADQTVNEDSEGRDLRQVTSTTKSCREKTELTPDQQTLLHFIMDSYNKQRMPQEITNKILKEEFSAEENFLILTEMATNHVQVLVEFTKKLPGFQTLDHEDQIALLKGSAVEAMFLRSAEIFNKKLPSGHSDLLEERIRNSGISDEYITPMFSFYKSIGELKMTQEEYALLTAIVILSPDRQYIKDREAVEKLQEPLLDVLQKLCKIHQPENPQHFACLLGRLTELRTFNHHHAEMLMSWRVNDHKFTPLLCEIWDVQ
Assay: In Vitro FXR Assay (TK): SeedingCV-1 cells were seeded at a density of 2,000,000 cells in a T175 flask with DMEM+10% charcoal double-stripped FBS and incubated at 37° C. in 5% CO2 for 18 h (O/N).TransfectionAfter 18 h of incubation, the medium in the T175 flask was changed with fresh DMEM+10% charcoal super-stripped serum. In a polypropylene tube, 2500 μL OptiMEM (Life Technologies, Cat #31985-062) was combined with expression plasmids for hFXR, hRXR, TK-ECRE-luc and pCMX-YFP. The tube was then briefly vortexed and incubated at room temperature for 5 minutes. Transfection reagent (X-tremeGENE HP from Roche, Cat #06 366 236 001) was added to the OptiMEM/plasmid mixture vortexed and incubated at room temperature for 20 minutes. Following incubation, the transfection reagent/DNA mixture complex was added to cells in the T175 flask and the cells were incubated at 37° C. in 5% CO2 for 18 h (O/N).Test CompoundsCompounds were serially diluted in DMSO and added to transfected CV-1 cells. The cells were then incubated for 18 hrs. The next day cells were lysed and examined for luminescence.

Row | pEC50 | Structure (SMILES)
1 | > 6.00 | COC(=O)c1ccc2c(N(C[C@H]3CC[C@H](c4cccc(OC)c4)CC3)C(=O)CC(C)(C)C)nccc2c1
2 | > 6.00 | COC(=O)c1ccc2c(N(C[C@H]3CC[C@H](c4ccc(C)cc4)CC3)C(=O)CC(C)(C)C)nccc2c1
3 | > 6.00 | COC(=O)c1ccc2c(N(C[C@H]3CC[C@H](c4ccc(OC)c(C)c4)CC3)C(=O)C3CCCCC3)nccc2c1

From ChEMBL document CHEMBL5727231, “Farnesoid X receptor agonists and uses thereof” (2019)
